From patent US10426758B2, “Sibiriline derivatives for use for preventing and/or treating disorders associated with cellular necroptosis” (Institut National de la Sante et de la Recherche Medicale …, priority 2015, dated 2019) come the findings set out here.

Structures are written as SMILES.

By EC50 is commonly meant the midpoint of the concentration-response curve. For orientation: IC50 means the midpoint of a concentration-inhibition curve.

Data set [1] has as its system Jurkat FADD-deficient I 2.1 cell line. Briefly: Cell-based screening: TNF-α-induced necroptosis in Jurkat FADD-deficient cells, MTS viability assay. On the set-up: species or system human. As to conditions: for EC50: Homo sapiens, Jurkat, necroptosis induced by 10 ng/ml TNF-α, 24 hours, MTS viability; for inhibition of necroptosis induced by TNF-α (figure legend): human T lymphocyte, Jurkat FADD deficient cell line. From the text: TNF-α can induce necroptosis in Jurkat cells (human T lymphocytes) when FADD is deleted. This model was used to screen various libraries of chemical compounds for characterization of new inhibitors of cellular necroptosis. Details on this cell-based assay can be found in (Miao and Degterev, Methods Mol. Biol. 2009, 559, 79-93). The Jurkat FADD-deficient I 2.1 cell line used was purchased from ATCC and was maintained in RPMI 1640 medium (Gibco) containing Glutamax and 15% fetal calf serum (Life Technology). Necroptosis was induced by addition of 10 ng/ml of human recombinant TNF-α (Life Technology). Necrostatin-1 (Nec-1, Enzo Life Sciences) was used as model necroptosis inhibitor. Cells were maintained in 75 cm^2 flask and passed every 2 or 3 days. Chemical collections analysed were formatted in 96-well plates with 80 molecules per plates at 10 mM in 100% DMSO. For each collection plate, 2 cell plates were seeded (one necroptosis-induced with TNF-α and the other without TNF-α). Cells were seeded at 20000 cells/well, in 40 μl of medium, in a 96-well clear, flat bottom plate (CytoOne, Starlab) before treatment. Then, 40 μl of medium with or without TNF-α at 25 ng/ml were added to all wells in the corresponding plate. Immediately after TNF-α addition, 20 μl of diluted compound at 50 μM were added to the plates. Final concentration of each chemical compound was 10 μM at 0.1% DMSO. Four positives (Nec-1 at 10 μM final) and four negative (DMSO) controls were used in each plate to validate the assay. Cells were incubated at 37° C., 5% CO2 for 24 hours before performing MTS viability assay, described hereafter. Compounds were diluted before to treat cells. Liquid handling was performed using the Nimbus Microlab liquid handler (Hamilton Robotics) under microbiological safety workbench. The 10 mM compounds were diluted at 50 μM directly in cell medium.
In general terms: Formazan colour is commonly taken as a measure of viable cells.

The target in data set [2] is T1, Human RIPK1 full length GST-tagged (Homo sapiens, UniProt Q13546).
T1 construct: Human RIPK1 full length GST-tagged; made in house; host or cells: Sf9 insect cells (Bac-to-Bac baculovirus system)
T1 sequence (Q13546 1-671): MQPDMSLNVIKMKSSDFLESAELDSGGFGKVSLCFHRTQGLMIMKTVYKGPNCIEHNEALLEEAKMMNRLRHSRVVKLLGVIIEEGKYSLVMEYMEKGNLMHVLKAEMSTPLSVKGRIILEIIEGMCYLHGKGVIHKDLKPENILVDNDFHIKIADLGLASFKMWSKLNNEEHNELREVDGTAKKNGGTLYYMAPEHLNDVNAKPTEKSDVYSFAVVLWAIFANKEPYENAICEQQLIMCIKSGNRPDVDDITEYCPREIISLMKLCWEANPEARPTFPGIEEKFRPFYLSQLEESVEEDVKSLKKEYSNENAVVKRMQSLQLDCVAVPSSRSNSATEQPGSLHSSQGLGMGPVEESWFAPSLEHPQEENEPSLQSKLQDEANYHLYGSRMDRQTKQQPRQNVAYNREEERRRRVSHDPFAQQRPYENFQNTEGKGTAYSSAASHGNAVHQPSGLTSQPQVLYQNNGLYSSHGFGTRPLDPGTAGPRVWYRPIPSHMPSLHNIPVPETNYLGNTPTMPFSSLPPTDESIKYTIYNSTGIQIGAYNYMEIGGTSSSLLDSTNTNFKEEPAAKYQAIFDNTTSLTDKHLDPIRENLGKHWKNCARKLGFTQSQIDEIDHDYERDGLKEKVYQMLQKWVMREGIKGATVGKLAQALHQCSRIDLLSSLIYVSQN
Briefly: RIPK1 autophosphorylation assay. The format is biochemical. As to conditions: radioactively labeled RIPK1, [γ-32P] ATP, 30 minutes at 30° C. The method, then: Human RIPK1 full length GST-tagged was baculovirally expressed in Sf9 cells according to manufacturer's instructions (Bac-to-Bac expression system, Invitrogen) and purified using gluthation-sepharose beads (GE Healthcare). The elution was made in 50 mM Tris-HCl, pH 8.0 buffer supplemented with 30 mM reduced gluthatione (Sigma). The protocol used to detect the enzymatic activity is adapted from Miao and Degterev (Methods Mol. Biol. 2009, 559, 79-93). Kinase reaction was initiated mixing 5 μl of eluted RIPK1, 5 μl of 3× kinase reaction buffer (5 mM MOPS pH 7.2, 2.5 mM β-glycerophosphate, 4 mM MgCl2, 2.5 mM MnCl2, 1 mM EGTA, 0.4 mM EDTA, 50 μg/ml BSA, 0.05 mM DTT), 2 μl H2O and 3 μl of the tested molecule. The mixture was kept on ice for 10 minutes. During the incubation, the ATP solution was prepared by mixing 5 μl of 3× kinase reaction buffer, 4 μl H2O, 6 μl cold ATP at 150 μM and 2 μCi of [γ-^32P] ATP. Add the ATP solution and the tested inhibitor to the kinase and incubate for 30 minutes at 30° C. To stop the enzymatic reaction, 5 μl of loading buffer were added and solution was heated for 3 minutes at 95° C. 25 μl of each reaction were loaded per well in pre-cast NuPage 12% Bis-Tris gel (Life Technology). Autophosphorylated RIPK1 band was visualized on radiographic film after 6 h exposition at −80° C.

Data set [3] has as its system Jurkat Fadd−/−. Put plainly: Necroptosis induced by TNF in Jurkat Fadd−/−, MTS Cell Proliferation assay. The format is cell-based. The following applies: Homo sapiens. The method, then: (§1) Besides, the IC50 of compound 3, compound 6 and necrostatin-1 (Nec-1) were determined in mouse or human cellular models of necroptosis induced by FasL+zVAD-fmk (a pan-caspase inhibitor) or TNF, and by using two cytotoxic assays (MTS Cell Proliferation assay or intracellular ATP level). As shown in the table below, compound 3 and compound 6 inhibit TNF-α or FasL-induced necroptosis with IC50 almost similar to those obtained with Nec-1.

For data set [4], the system named is L929sAhFas. Briefly: Necroptosis induced by FasL + zVAD-fmk in L929sAhFas, intracellular ATP level. The format is cell-based. As to conditions: Mus musculus. The method, then:
as §1

Data set [5] deals with Jurkat Fadd−/−. Briefly: Necroptosis induced by TNF in Jurkat Fadd−/−, intracellular ATP level. The format is cell-based. As to conditions: Homo sapiens. The procedure: as §1
In data set [6] the test system is L929sAhFas. Briefly: Necroptosis induced by FasL + zVAD-fmk in L929sAhFas, MTS Cell Proliferation assay. The class given is cell-based. As to conditions: Mus musculus. The method, then: as §1
In data set [7] the test system is murine model of acute hepatitis (concanavalin A-induced hepatitis). Briefly: Concanavalin A-induced acute hepatitis in mice. The format is in vivo, C57Bl/6 WT mice. As to conditions: Nec-1s 6.25 mg/kg intraperitoneal 1 hour before 12 mg/kg Con A for 10 h. The procedure:
We use a murine model of acute hepatitis (concanavalin A-induced hepatitis) that depends on necroptosis induction (Jouan-Lanhouet et al. Semin. Cell. Dev. Biol. 2014, 35, 2-13). Sib is diluted in 50% PBS/50% DMSO.
C57Bl/6 WT mice were pre-treated or not with 3, 6 or 9 mg/kg Sib or 6.25 mg/kg Nec-1s injected by intraperitoneal route 1 hour before treatment or not with 12 mg/kg Con A for 10 h (intravenous route) (50% PBS/50% DMSO, n=5; 50% PBS/50% DMSO+Con A, n=5; 3 mg/kg Sib+Con A, n=5; 6 mg/kg Sib+Con A, n=5; 9 mg/kg Sib+Con A, n=5; 6.25 mg/kg Nec-1s+Con A, n=5).

The test system of data set [8] is cytochrome P450 CYP1A enzymes in HepG2 cells. Put plainly: Ethoxyresorufin O-deethylase (EROD) activity in HepG2 cells. The class given is in vitro ADME, human. The following applies: 10 μM, 24 hours. The procedure:
EROD activity corresponds to the O-deethylation of ethoxyresorufin and is mainly supported by cytochrome P450 CYP1A enzymes in HepG2 cells. Induction of CYP1A is mediated through the binding of xenobiotics to a cytosolic aryl hydrocarbon receptor AhR.
Human liver cancer cell lines HepG2 were treated with 10 μM of Sib, Nec-1 or Nec-1s for 24 hours. After treatment, HepG2 cells were incubated in PBS containing 5 mM ethoxyresorufin and kinetic reading was performed at 37° C. with spectrofluorometer (SpectraMax Gemini SX) over a 15 min period.

Consider `CCOc1ccc(-c2cc3c(Cl)ccnc3[nH]2)cc1` [compound 7, 4-chloro-2-(4-ethoxyphenyl)-1H-pyrrolo[2,3-b]pyridine], for which, in data set [1], the EC50 came to 2 µM and the “inhibition of necroptosis induced by TNF-α (figure legend)” value (“inhibition of necroptosis induced” for short) is on record as “dose-dependent inhibition”. Besides, the “inhibition of RIPK1 autophosphorylation” value in data set [2] was “dose-dependent inhibition”.

`CN1C(=O)C(Cc2c[nH]c3ccccc23)NC1=S` (centres unmarked) [Nec-1, necrostatin-1, reference compound]: the IC50 in data set [3] worked out at 1.3 µM; in data set [4] it was 10 µM; in data set [5], 1.3 µM; in data set [6], 10 µM.

In data set [1], `c1cnc2[nH]c(-c3ccc4c(c3)OCCO4)cc2c1` [compound 5, 2-(1,4-benzodioxanyl)-1H-pyrrolo[2,3-b]pyridine] gave an EC50 of 1.4 µM.

As to `c1cnc2[nH]c(-c3ccc4c(c3)OCO4)cc2c1` [compound 6], the EC50 in data set [1] was 1.8 µM. In addition, the IC50 in data set [3] was found to be 7 µM; in data set [5] it was 4 µM; in data set [6] it was 10 µM.

Regarding `CCOc1ccc(-c2cc3cc(-c4ccc(OC)c(OC)c4)cnc3[nH]2)cc1` [compound 8, 5-(3,4-dimethoxyphenyl)-2-(4-ethoxyphenyl)-1H-pyrrolo[2,3-b]pyridine], in data set [1], the EC50 came to 1.5 µM and the “inhibition of necroptosis induced” value was “dose-dependent inhibition”.

In the case of `CC(C)Oc1ccc(-c2cc3cccnc3[nH]2)cc1` [compound 4, 2-(4-isopropoxyphenyl)-1H-pyrrolo[2,3-b)pyridine], in data set [1], the EC50 was determined as 0.9 µM and the “inhibition of necroptosis induced” value was “dose-dependent inhibition”.

As for `CCOc1ccc(-c2cc3cc(Br)cnc3[nH]2)cc1` [compound 10, 5-bromo-2-(4-ethoxyphenyl)-1H-pyrrolo[2,3-b]pyridine], the “inhibition of necroptosis induced” value in data set [1] is recorded as “slight dose-dependent inhibition”.

Turning to `CCOc1ccc(-c2cc3cccnc3[nH]2)cc1` [compound 3, 2-(4-ethoxyphenyl)-1H-pyrrolo[2,3-b]pyridine], the response in data set [1] was half-maximal at 0.7 µM (EC50). In data set [1], the “inhibition of necroptosis induced” value is listed as “dose-dependent inhibition”. Also, the IC50 in data set [3] turned out to be 2.7 µM; in data set [4] it was 2.5 µM; in data set [5] it was 1.3 µM. The “inhibition of RIPK1 autophosphorylation” value in data set [2] was “dose-dependent inhibition”.

Take `COc1ccc(-c2cc3cccnc3[nH]2)cc1` [compound 1, 2-(4-methoxyphenyl)-1H-pyrrolo[2,3-b]pyridine]: in data set [1], a half-maximal effect (EC50) was put at 0.4 µM and the “inhibition of necroptosis induced” value was “dose-dependent inhibition”.

Take `c1cnc2[nH]c(-c3ccc(OC4CCCC4)cc3)cc2c1` [compound 9, 2-(4-(cyclopentyloxy)phenyl)-1H-pyrrolo[2,3-b]pyridine]: in data set [1], a half-maximal effect (EC50) was put at 3 µM and the “inhibition of necroptosis induced” value is “dose-dependent inhibition”.

Consider `CN1C(=O)NC(Cc2c[nH]c3c(Cl)cccc23)C1=O` (centres unmarked) [Nec-1s, reference compound], for which, in data set [7], the “AST and ALT levels and protection from Con A-induced hepatitis” value was “has a tendency to decrease AST and ALT levels and to protect mice from Con A-induced hepatitis”. Also, in data set [8], the “induction of EROD activity” value is listed as “do not induce EROD activity”.
